#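 Following 48 hours of exposure in 96-well plates, responses at five concentrations were used to interpolate endpoints linearly. Abbreviation: GI50, concentration required for 50% inhibition of growth.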 Activity calls are given as the source filed them. No stated cut-off is given here; in the data, active = GI50 up to about 1.1 µM and inactive = higher.
# Experiments:
# Experiment in all cases: NCI anticancer screen, dose series, 48 h
# 786-0 = test system: 786-0
# A498 = test system: A498
# ACHN = test system: ACHN
# CAKI-1 = test system: CAKI-1
# CCRF-CEM = test system: CCRF-CEM
# COLO 205 = test system: COLO 205
# DLD-1 = test system: DLD-1
# DMS-114 = test system: DMS-114
# DMS-273 = test system: DMS-273
# EKVX = test system: EKVX
# HCC 2998 = test system: HCC 2998
# HCT-116 = test system: HCT-116
# HCT-15 = test system: HCT-15
# HL-60 = test system: HL-60
# HOP-62 = test system: HOP-62
# HOP-92 = test system: HOP-92
# HT-29 = test system: HT-29
# IGROV-1 = test system: IGROV-1
# K562 = test system: K562
# KM-20L2 = test system: KM-20L2
# KM12 = test system: KM12
# LOX IMVI = test system: LOX IMVI
# LXFL 529 = test system: LXFL 529
# M14 = test system: M14
# M19-MEL = test system: M19-MEL
# MOLT-4 = test system: MOLT-4
# Malme-3M = test system: Malme-3M
# NCI-H226 = test system: NCI-H226
# NCI-H23 = test system: NCI-H23
# NCI-H460 = test system: NCI-H460
# NCI-H522 = test system: NCI-H522
# OVCAR-3 = test system: OVCAR-3
# OVCAR-4 = test system: OVCAR-4
# OVCAR-5 = test system: OVCAR-5
# OVCAR-8 = test system: OVCAR-8
# RPMI-8226 = test system: RPMI-8226
# RXF 393 = test system: RXF 393
# SF-268 = test system: SF-268
# SF-295 = test system: SF-295
# SF-539 = test system: SF-539
# SK-MEL-28 = test system: SK-MEL-28
# SK-MEL-2 = test system: SK-MEL-2
# SK-MEL-5 = test system: SK-MEL-5
# SK-OV-3 = test system: SK-OV-3
# SN12C = test system: SN12C
# SNB-19 = test system: SNB-19
# SNB-75 = test system: SNB-75
# SNB-78 = test system: SNB-78
# SR = test system: SR
# SW-620 = test system: SW-620
# TK-10 = test system: TK-10
# U-251 = test system: U-251
# UACC-257 = test system: UACC-257
# UACC-62 = test system: UACC-62
# UO-31 = test system: UO-31
# XF498 = test system: XF498
# A549 = test system: A549
smiles,measurement,setting,value
CC1OC(CC2C=CCc3c(O)c4c(c(O)c32)C(=O)c2ccccc2C4=O)CC(NC(=O)C(F)(F)F)C1O (configuration not stated),GI50,786-0,11.1 µM (inactive)
same,GI50,A498,4.69 µM (inactive)
same,GI50,ACHN,10.9 µM (inactive)
same,GI50,CAKI-1,7.55 µM (inactive)
same,GI50,CCRF-CEM,5.11 µM (inactive)
same,GI50,COLO 205,13.8 µM (inactive)
same,GI50,DLD-1,7.38 µM (inactive)
same,GI50,DMS-114,10 µM (inactive)
same,GI50,DMS-273,6.32 µM (inactive)
same,GI50,EKVX,12.6 µM (inactive)
same,GI50,HCC 2998,29.4 µM (inactive)
same,GI50,HCT-116,3.13 µM (inactive)
same,GI50,HCT-15,11.9 µM
same,GI50,HL-60,11.8 µM (inactive)
same,GI50,HOP-62,6.49 µM (inactive)
same,GI50,HOP-92,2.92 µM (inactive)
same,GI50,HT-29,14.4 µM (inactive)
same,GI50,IGROV-1,18.9 µM (inactive)
same,GI50,K562,4.85 µM (inactive)
same,GI50,KM-20L2,16.3 µM (inactive)
same,GI50,KM12,15.9 µM (inactive)
same,GI50,LOX IMVI,6.73 µM (inactive)
same,GI50,LXFL 529,6.87 µM (inactive)
same,GI50,M14,4.29 µM (inactive)
same,GI50,M19-MEL,8.22 µM (inactive)
same,GI50,MOLT-4,7.21 µM (inactive)
same,GI50,Malme-3M,3.12 µM (inactive)
same,GI50,NCI-H226,13.7 µM (inactive)
same,GI50,NCI-H23,7.59 µM (inactive)
same,GI50,NCI-H460,5.25 µM (inactive)
same,GI50,NCI-H522,18.1 µM (inactive)
same,GI50,OVCAR-3,6.76 µM (inactive)
same,GI50,OVCAR-4,2.79 µM (inactive)
same,GI50,OVCAR-5,42.8 µM (inactive)
same,GI50,OVCAR-8,4.22 µM (inactive)
same,GI50,RPMI-8226,4.28 µM (inactive)
same,GI50,RXF 393,2.52 µM (inactive)
same,GI50,SF-268,10.3 µM (inactive)
same,GI50,SF-295,5.74 µM (inactive)
same,GI50,SF-539,3.95 µM (inactive)
same,GI50,SK-MEL-28,4.55 µM (inactive)
same,GI50,SK-MEL-2,6.87 µM (inactive)
same,GI50,SK-MEL-5,11.2 µM (inactive)
same,GI50,SK-OV-3,10.2 µM (inactive)
same,GI50,SN12C,5.5 µM (inactive)
same,GI50,SNB-19,4.86 µM (inactive)
same,GI50,SNB-75,2.27 µM (inactive)
same,GI50,SNB-78,4.18 µM (inactive)
same,GI50,SR,3.7 µM (inactive)
same,GI50,SW-620,14.3 µM (inactive)
same,GI50,TK-10,2.29 µM (inactive)
same,GI50,U-251,3.94 µM (inactive)
same,GI50,UACC-257,7.93 µM (inactive)
same,GI50,UACC-62,4.71 µM (inactive)
same,GI50,UO-31,20 µM (inactive)
same,GI50,XF498,1.91 µM (inactive)
CCCN(CCC)c1c([N+](=O)[O-])cc(C(=O)N(C)C)cc1[N+](=O)[O-],GI50,786-0,> 100 µM (inactive)
same,GI50,A549,51.5 µM (inactive)
same,GI50,ACHN,16.4 µM (inactive)
same,GI50,CAKI-1,> 100 µM (inactive)
same,GI50,CCRF-CEM,28.4 µM (inactive)
same,GI50,COLO 205,76.4 µM (inactive)
same,GI50,DLD-1,> 100 µM (inactive)
same,GI50,DMS-114,33.4 µM (inactive)
same,GI50,DMS-273,30.2 µM (inactive)
same,GI50,EKVX,37.8 µM (inactive)
same,GI50,HCC 2998,> 100 µM (inactive)
same,GI50,HCT-116,43.4 µM (inactive)
same,GI50,HCT-15,40.4 µM
same,GI50,HL-60,15.6 µM (inactive)
same,GI50,HT-29,> 100 µM (inactive)
same,GI50,IGROV-1,69.2 µM (inactive)
same,GI50,K562,19.2 µM (inactive)
same,GI50,KM12,> 100 µM (inactive)
same,GI50,LXFL 529,> 100 µM (inactive)
same,GI50,M14,96.6 µM (inactive)
same,GI50,M19-MEL,92 µM (inactive)
same,GI50,MOLT-4,41 µM (inactive)
same,GI50,Malme-3M,52.6 µM (inactive)
same,GI50,NCI-H23,53.2 µM (inactive)
same,GI50,NCI-H460,47.3 µM (inactive)
same,GI50,NCI-H522,62.1 µM (inactive)
same,GI50,OVCAR-3,75 µM (inactive)
same,GI50,OVCAR-4,15.5 µM (inactive)
same,GI50,OVCAR-5,> 100 µM (inactive)
same,GI50,OVCAR-8,> 100 µM (inactive)
same,GI50,RPMI-8226,52.2 µM (inactive)
same,GI50,SF-268,> 100 µM (inactive)
same,GI50,SF-295,> 100 µM (inactive)
same,GI50,SF-539,> 100 µM (inactive)
same,GI50,SK-MEL-28,> 100 µM (inactive)
same,GI50,SK-MEL-2,> 100 µM (inactive)
same,GI50,SK-MEL-5,5.07 µM (inactive)
same,GI50,SK-OV-3,> 100 µM (inactive)
same,GI50,SN12C,> 100 µM (inactive)
same,GI50,SNB-75,17 µM (inactive)
same,GI50,SNB-78,> 100 µM (inactive)
same,GI50,TK-10,> 100 µM (inactive)
same,GI50,U-251,86.5 µM (inactive)
same,GI50,UACC-257,35.4 µM (inactive)
same,GI50,UO-31,92.9 µM (inactive)
same,GI50,XF498,54.7 µM (inactive)

# From ChEMBL document CHEMBL1201862, “PubChem BioAssay data set” (2004)
